Measured values published in publication PMC9962964, “^68Ga-Labeled [Thz^14]Bombesin(7–14) Analogs: Promising GRPR-Targeting Agonist PET Tracers with Low Pancreas Uptake” (Molecules, 2023).
Where two headings read alike, the source gives them in different places.

Experiments:
[1] = 15 min post-injection
Experimental: PET/CT imaging, biodistribution, and in vivo stability studies were conducted on male NOD.Cg-Rag1^tm1Mom Il2rg^tm1Wjl/SzJ (NRG) mice, following previously published procedures. The experiments were conducted according to the guidelines established by the Canadian Council on Animal Care and approved by the Animal Ethics Committee of the University of British Columbia (protocol number A20-0113, approved on 30 September 2020). […] Mice were used for PET/CT imaging and biodistribution studies when the tumor grew to 5–8 mm in diameter over around 4 weeks.
At 15 min post-injection, mice were sedated and euthanized, and urine and blood were collected. The plasma was extracted from whole blood by adding CH3CN (500 μL), vortex, centrifugation, and the separation of supernatant. The plasma and urine samples were analyzed via radio-HPLC using the conditions for quality control of these ^68Ga-labeled radioligands (Table S3).

[2] = Ex vivo biodistribution in PC-3 tumor-bearing mice; design: species or system NRG mice; settings: mouse; for tissue to tissue ratio at 1 h: male, NRG (NOD.Cg-Rag1^tm1Mom Il2rg^tm1Wjl/SzJ), iv, total radioactivity; for tissue uptake at 1 h: intravenous
Experimental: (§1) For biodistribution studies, the mice were injected with the radiotracer (2–4 MBq) via the tail vein as described above. For blocking, the mice were co-injected with 100 μg of [D-Phe^6,Leu-NHEt^13,des-Met^14]Bombesin(6–14). At 1 h post-injection, the mice were anesthetized through isoflurane inhalation and euthanized through CO2 inhalation. Blood was collected through a cardiac puncture, and organs/tissues of interest were collected, weighed, and counted using a Perkin Elmer (Waltham, MA, USA) Wizard2 2480 automatic gamma counter.

[3] = tested on: PC-3 tumor xenografts; assay: Ex vivo biodistribution in PC-3 tumor-bearing mice; design: species or system NRG mice
Experimental: as §1

[4] = tested on: PC-3 tumor xenografts; assay: PET/CT imaging of PC-3 tumor xenografts; type: in vivo, NRG mice; settings: 1 h post-injection
Experimental: PET/CT imaging experiments were performed on a Siemens (Knoxville, TN) Inveon micro PET/CT scanner. The tumor-bearing mouse was injected with 3–5 MBq of ^68Ga-labeled tracer through a lateral caudal tail vein under anesthesia, followed by recovery and roaming freely in its cage during the uptake period. At 50 min post-injection, a 10 min CT scan was conducted first for the localization and attenuation correction after segmentation for reconstructing the PET images, followed by a 10 min static PET imaging acquisition.

[5] = pH 7.4
Experimental: Briefly, aliquots (2 μL) of the ^68Ga-labeled peptides were added into a 15 mL falcon tube containing 3 mL of n-octanol and 3 mL of 0.1 mol/L DPBS (pH 7.4). The mixture was vortexed for 1 min and then centrifuged at 3000 rpm for 15 min. Samples of the n-octanol (1 mL) and buffer (1 mL) layers were collected and measured in a gamma counter. LogD7.4 was calculated using the following equation: LogD7.4 = log10 [(counts in the n-octanol phase)/(counts in the buffer phase)].

[6] = co-injection of 100 μg [D-Phe6,Leu-NHEt13,des-Met14]Bombesin(6–14), 1 h post-injection

In the case of `CC(C)C[C@H](NC(=O)[C@H](Cc1c[nH]cn1)NC(=O)CNC(=O)[C@@H](NC(=O)[C@H](C)NC(=O)[C@H](Cc1c[nH]c2ccccc12)NC(=O)[C@H](CCC(N)=O)NC(=O)[C@@H](Cc1ccccc1)NC(=O)CN1CCC(NC(=O)CN2CCN(CC(=O)O)CCN(CC(=O)O)CCN(CC(=O)O)CC2)CC1)C(C)C)C(=O)N1CSC[C@H]1C(N)=O` [[^68Ga]Ga-TacBOMB2, metal not drawn], the “intact fraction in plasma” value ([1]; mouse plasma, n = 3) is reported as 12.7 ± 2.93%, the “intact tracer in urine” value ([1]; mouse urine) is reported as “no intact” and the tissue to tissue ratio at 1 h ([2]; tumor and bone, 1 h blocked: co-injected with 100 µg of [D-Phe6,Leu-NHEt13,des-Met14]Bombesin(6-14), n = 4, read-out: Tumor/bone uptake ratio) is reported as 8.94 ± 1.49. It also gave a tissue to tissue ratio at 1 h ([2]; tumor and bone, 1 h post-injection, n = 4, read-out: Tumor/bone uptake ratio) of 28.9 ± 18.3, a tissue to tissue ratio at 1 h ([2]; tumor and intestines, 1 h blocked: co-injected with 100 µg of [D-Phe6,Leu-NHEt13,des-Met14]Bombesin(6-14), n = 4, read-out: Tumor/intestines uptake ratio) of 3.33 ± 0.67 and a tissue to tissue ratio at 1 h ([2]; tumor and intestines, 1 h post-injection, n = 4, read-out: Tumor/intestines uptake ratio) of 10.5 ± 3.06. The tissue to tissue ratio at 1 h ([2]; tumor and kidney, 1 h blocked: co-injected with 100 µg of [D-Phe6,Leu-NHEt13,des-Met14]Bombesin(6-14), n = 4, read-out: Tumor/kidney uptake ratio) was 0.47 ± 0.04, the tissue to tissue ratio at 1 h ([2]; tumor and kidney, 1 h post-injection, n = 4, read-out: Tumor/kidney uptake ratio) was 2.46 ± 0.33 and the tissue to tissue ratio at 1 h ([2]; tumor and muscle, 1 h blocked: co-injected with 100 µg of [D-Phe6,Leu-NHEt13,des-Met14]Bombesin(6-14), n = 4, read-out: Tumor/muscle uptake ratio) was 7.14 ± 1.4. It also gave a tissue to tissue ratio at 1 h ([2]; tumor and muscle, 1 h post-injection, n = 4, read-out: Tumor/muscle uptake ratio) of 57.9 ± 32.8, a tissue to tissue ratio at 1 h ([2]; tumor and pancreas, 1 h blocked: co-injected with 100 µg of [D-Phe6,Leu-NHEt13,des-Met14]Bombesin(6-14), n = 4, read-out: Tumor/pancreas uptake ratio) of 6.22 ± 0.67 and a tissue to tissue ratio at 1 h ([2]; tumor and pancreas, 1 h post-injection, n = 4, read-out: Tumor/pancreas uptake ratio) of 4.64 ± 0.77. It also gave a tissue to tissue ratio at 1 h ([2]; tumor and whole blood, 1 h post-injection, n = 4, read-out: Tumor/blood uptake ratio) of 16.4 ± 5.64, a tissue uptake at 1 h ([2]; PC-3 tumor, 100 ug, 1 h blocked: co-injected with 100 µg of [D-Phe6,Leu-NHEt13,des-Met14]Bombesin(6-14), n = 4, read-out: PC-3 tumor uptake) of 0.92 ± 0.22 %ID/g and a tissue uptake at 1 h ([2]; PC-3 tumor, 1 h post-injection, n = 4, read-out: PC-3 tumor uptake) of 5.95 ± 0.5 %ID/g. For the same compound, the tissue uptake at 1 h ([2]; blood, 100 ug, 1 h blocked: co-injected with 100 µg of [D-Phe6,Leu-NHEt13,des-Met14]Bombesin(6-14), n = 4, read-out: Blood uptake) was 0.55 ± 0.19 %ID/g, the tissue uptake at 1 h ([2]; blood, 1 h post-injection, n = 4, read-out: Blood uptake) was 0.39 ± 0.12 %ID/g and the tissue uptake at 1 h ([2]; bone, 100 ug, 1 h blocked: co-injected with 100 µg of [D-Phe6,Leu-NHEt13,des-Met14]Bombesin(6-14), n = 4, read-out: Bone uptake) was 0.1 ± 0.03 %ID/g. The tissue uptake at 1 h ([2]; bone, 1 h post-injection, n = 4, read-out: Bone uptake) was 0.26 ± 0.11 %ID/g, the tissue uptake at 1 h ([2]; brain, 100 ug, 1 h blocked: co-injected with 100 µg of [D-Phe6,Leu-NHEt13,des-Met14]Bombesin(6-14), n = 4, read-out: Brain uptake) was 0.02 %ID/g and the tissue uptake at 1 h ([2]; brain, muscle, fat, bone, liver, stomach, heart, and spleen, 1 h post-injection, read-out: Uptake values for the brain, muscle, fat, bone, liver, stomach, heart, and spleen) was less than 1 %ID/g. The tissue uptake at 1 h ([2]; fat, 100 ug, 1 h blocked: co-injected with 100 µg of [D-Phe6,Leu-NHEt13,des-Met14]Bombesin(6-14), n = 4, read-out: Fat uptake) was 0.07 ± 0.02 %ID/g, the tissue uptake at 1 h ([2]; fat, 1 h post-injection, n = 4, read-out: Fat uptake) was 0.1 ± 0.03 %ID/g and the tissue uptake at 1 h ([2]; heart, 100 ug, 1 h blocked: co-injected with 100 µg of [D-Phe6,Leu-NHEt13,des-Met14]Bombesin(6-14), n = 4, read-out: Heart uptake) was 0.16 ± 0.04 %ID/g. The tissue uptake at 1 h ([2]; heart, 1 h post-injection, n = 4, read-out: Heart uptake) was 0.14 ± 0.02 %ID/g, the tissue uptake at 1 h ([2]; intestines, 100 ug, 1 h blocked: co-injected with 100 µg of [D-Phe6,Leu-NHEt13,des-Met14]Bombesin(6-14), n = 4, read-out: Intestines uptake) was 0.28 ± 0.07 %ID/g and the tissue uptake at 1 h ([2]; intestines, 1 h post-injection, n = 4, read-out: Intestines uptake) was 0.6 ± 0.12 %ID/g. For the same compound, the tissue uptake at 1 h ([2]; kidneys, 100 ug, 1 h blocked: co-injected with 100 µg of [D-Phe6,Leu-NHEt13,des-Met14]Bombesin(6-14), n = 4, read-out: Kidneys uptake) was 1.99 ± 0.59 %ID/g, the tissue uptake at 1 h ([2]; kidneys, 1 h post-injection, n = 4, read-out: Kidneys uptake) was 2.43 ± 0.16 %ID/g and the tissue uptake at 1 h ([2]; lungs, 100 ug, 1 h blocked: co-injected with 100 µg of [D-Phe6,Leu-NHEt13,des-Met14]Bombesin(6-14), n = 4, read-out: Lungs uptake) was 0.39 ± 0.1 %ID/g. For the same compound, the tissue uptake at 1 h ([2]; lungs, 1 h post-injection, n = 4, read-out: Lungs uptake) was 0.39 ± 0.1 %ID/g, the tissue uptake at 1 h ([2]; pancreas, 100 ug, 1 h blocked: co-injected with 100 µg of [D-Phe6,Leu-NHEt13,des-Met14]Bombesin(6-14), n = 4, read-out: Pancreas uptake) was 0.15 ± 0.03 %ID/g and the tissue uptake at 1 h ([2]; pancreas, 1 h post-injection, n = 4, read-out: Pancreas uptake) was 1.3 ± 0.14 %ID/g. It also gave a tissue uptake at 1 h ([2]; spleen, 100 ug, 1 h blocked: co-injected with 100 µg of [D-Phe6,Leu-NHEt13,des-Met14]Bombesin(6-14), n = 4, read-out: Spleen uptake) of 0.18 ± 0.05 %ID/g, a tissue uptake at 1 h ([2]; spleen, 1 h post-injection, n = 4, read-out: Spleen uptake) of 0.27 ± 0.1 %ID/g and a tissue uptake at 1 h ([2]; stomach, 100 ug, 1 h blocked: co-injected with 100 µg of [D-Phe6,Leu-NHEt13,des-Met14]Bombesin(6-14), n = 4, read-out: Stomach uptake) of 0.13 ± 0.06 %ID/g. For the same compound, the tissue uptake at 1 h ([2]; testes, 100 ug, 1 h blocked: co-injected with 100 µg of [D-Phe6,Leu-NHEt13,des-Met14]Bombesin(6-14), n = 4, read-out: Testes uptake) was 0.21 ± 0.16 %ID/g, the Tumor/blood uptake ratio ([3]; 1 h blocked: co-injected with 100 µg of [D-Phe6,Leu-NHEt13,des-Met14]Bombesin(6-14), n = 4) was 1.71 ± 0.18 and the “reduction of average uptake in PC-3 tumor xenografts by co-injection of blocker” value [3, 6] was 85%. The “reduction of average uptake in pancreas by co-injection of blocker” value [3, 6] was 88%, the “reduction of average uptake in stomach by co-injection of blocker” value [3, 6] was 76% and the “visualization of PC-3 tumor xenografts in PET images” value [4] was “clearly visualized”. The excretion pathway ([4]; PET images) was “primarily excreted via the renal pathway” and the logD [5] was -3.21 ± 0.03.
